Measurements: article PMC10817945, “Design of a novel analogue peptide with potent antibiofilm activities against Staphylococcus aureus based upon a sapecin B-derived peptide” (Scientific Reports, 2024)
Values after ≈ are worked out from the molar mass of the structure shown. Where two headings read alike, the source gives them in different places. Non-standard residues stand in square brackets, D forms with d. Residues, ends and D or L forms follow the SMILES beside them.

Experiments:
[1] = in vitro; conditions: human
Procedure: (§1) The assay was performed using fresh human blood samples containing citrate phosphate dextrose anticoagulant collected from a blood bank (Iranian Blood Transfusion Organization). Human red blood cells (RBC) were centrifuged at 1700×g for 5 min; then the supernatant was removed and the erythrocyte pellet was diluted 1:100 in PBS to obtain a 1% erythrocyte suspension. […] Then, 50 μl of the 1% erythrocyte suspension and 50 μl of the peptides were mixed and added to wells of a 96-well polypropylene conical bottom microplate and incubated at 37 °C for 1 h. Following centrifugation of the samples at 1700×g for 5 min, 50 μl of the supernatant was transferred to wells of a 96-well flat-bottom plate for the absorbance measurement at 405 nm in a microplate reader. Identical volumes of Triton X-100 (1%) and PBS were used as positive and negative controls, respectively. The selectivity indexes (SI) were also determined as a toxicity indicator.

[2] = tested on: Human red blood cells; test: in vitro
Procedure: as §1

[3] = tested on: S. aureus isolates; test: microbe, parasite or virus in culture; assay type: cell-based, Staphylococcus aureus
Procedure: Minimum inhibitory concentrations (MIC) of KLK, mKLK, and vancomycin were determined using microdilution broth assay according to clinical and laboratory standards institute (CLSI) guidelines with some modifications. Briefly, overnight cultures were diluted in Muller-Hinton broth (MHB; Merck, Germany) to achieve a final density of 5 × 10^5 CFU/ml. A volume of 100 μl of bacterial suspension was added to wells of sterile 96-well plates containing 100 μl of two-fold peptide dilutions, ranging from 0.25 to 256 µg/ml. Vancomycin was used as a positive control in this assay. […] MBC was determined by removing samples from wells with no visible growth, serially diluting, and plating on Mueller Hinton (MH) agar plates for CFU counting.

[4] = tested on: preformed S. aureus biofilms; assay type: cell-based, Staphylococcus aureus
Procedure: The eradicative activity of KLK and mKLK peptides against preformed S. aureus biofilms was evaluated by determining MBEC, as previously described. The 24-h biofilms developed in TSB in a 96-well plate were washed three times with 200 μl PBS solution. Concentrations of the peptides ranging from 2 to 1024 µg/ml were prepared. A volume of 100 μl of each concentration was added to a corresponding well, and plates were incubated for 18–20 h at 37 °C. Then, wells were washed with sterile PBS solution, and 100 μl of PBS solution was added. The wells were thoroughly scraped with a sterile pipette tip, vortexed and sonicated to release the biofilm cells from the well surface. Subsequently, 10 μl of well contents were plated on MHA. Colonies were counted after 20 h at 37 °C. The MBEC was defined as the lowest concentration of peptide that inhibited bacterial regrowth.

[5] = tested on: S. aureus strains; assay type: cell-based, Staphylococcus aureus; conditions: for inhibition of biofilm formation: strains, 24 h
Procedure: To investigate the inhibitory effect of KLK and mKLK peptides on bacterial surface attachment and biofilm formation, the bacterial suspension in TSB with a concentration of 10^7 CFU/ml was prepared from overnight culture. An aliquot of 100 μl of the bacterial suspension was added to wells of 96-well plates containing 100 μl of the peptides solution with concentrations of 1×, 1/2× and 1/4× MIC, resulting in the final peptides concentrations of 1/2×, 1/4× and 1/8× MIC. To investigate the inhibitory effect of the peptides on surface attachment the incubation was performed at 37 °C for 2 h and to evaluate their inhibitory activity on biofilm formation the incubation was performed at 37 °C for 24 h. The wells containing only TSB medium were used as negative controls. After incubation, the contents of the wells were removed and washed three times with PBS and the wells were stained with 200 μl of 0.1% crystal violet for 20 min. The plates were washed again and excess dye was removed. A volume of 200 μl of 95% ethanol was added to each well for 20 min and absorbance was measured at 570 nm by a microplate reader.

[6] = tested on: 24-h S. aureus biofilms; test: Biofilm dispersal activity (crystal violet); assay type: cell-based, Staphylococcus aureus
Procedure: To investigate the dispersal activity of KLK and mKLK peptide, the 24-h S. aureus biofilms were prepared in TSB medium in the 96-well plates. Then, the final concentrations of 1×, 2×, and 4 × MIC were prepared for each peptide in the wells. After incubation at 37 °C for 12 h, plates were washed with PBS three times to discard unattached bacteria. Subsequently, plates were stained with 250 μl of 0.5% crystal violet for 20 min at room temperature. Then, the wells were washed and 250 μl 33% acetic acid was added to them. Finally, the absorbance was measured at 570 nm using a microplate reader.

CC(C)C[C@@H](NC(=O)[C@H](N)Cc1c[nH]c2ccccc12)C(=O)N[C@H](Cc1c[nH]c2ccccc12)C(=O)N[C@H](C)C(=O)N[C@H](CC(C)C)C(=O)N[C@H](CC(C)C)C(=O)N[C@H](CCCCN)C(=O)N[C@H](CC(C)C)C(=O)N[C@H](CC(C)C)C(=O)N[C@H](CCCCN)C(=O)N[C@H](CC(C)C)C(=O)N[C@H](CCCCN)C(N)=O [mKLK] (H-[dW][dL][dW][dA][dL][dL][dK][dL][dL][dK][dL][dK]-NH2; N-terminus assumed)
hemolysis at 1 h, 1.56 µM [1]: 0% | hemolysis at 1 h, 3.12 µM [1]: 0.3% | hemolysis at 1 h, 6.25 µM [1]: 1.8% | hemolysis at 1 h, 12.5 µM [1]: 9.3% | hemolysis at 1 h, 25 µM [1]: 15.4% | hemolysis at 1 h, 50 µM [1]: 36.2% | hemolysis at 1 h, 75 µM [1]: 48.2% | hemolysis at 1 h, 100 µM [1]: 58.2% | hemolysis at 1 h, 150 µM [1]: 62.4% | hemolysis at 1 h, 200 µM [1]: 67.1% | HC50 [2]: 118.6 µg/mL | HC50 ([2]; red cells of human, 1 h): 77.8 µM | MIC ([3]; ATCC25923): 4 µg/mL (≈ 2.62 µM) | MIC ([3]; MRSA clinical isolates, read-out: MIC): 8 µg/mL (≈ 5.25 µM) | MIC ([3]; MRSA-1): 8 µg/mL (≈ 5.25 µM) | MIC ([3]; MRSA-2): 8 µg/mL (≈ 5.25 µM) | MIC ([3]; MRSA-3): 8 µg/mL (≈ 5.25 µM) | MIC ([3]; MSSA-1): 4 µg/mL (≈ 2.62 µM) | MIC ([3]; MSSA-2): 4 µg/mL (≈ 2.62 µM) | MIC ([3]; three MRSA isolates): 8 µg/mL (≈ 5.25 µM) | MIC ([3]; two MSSA isolates): 4 µg/mL (≈ 2.62 µM) | MBEC ([4]; ATCC25923): 64 µg/mL | MBEC ([4]; MRSA-1): 64 µg/mL | MBEC ([4]; MRSA-2): 128 µg/mL | MBEC ([4]; MRSA-3): 64 µg/mL | MBEC ([4]; MSSA-1): 32 µg/mL | MBEC ([4]; MSSA-2): 32 µg/mL | MBEC, range over isolates ([4]; preformed biofilms): 32 to 128 µg/mL | crystal violet absorbance at 570 nm, biofilm formation, Mean±SD ([5]; ATCC25923, 1/2MIC, control 2.302±0.006): 0.207±0.02 | crystal violet absorbance at 570 nm, biofilm formation, Mean±SD ([5]; ATCC25923, 1/4MIC, control 2.302±0.006): 0.257±0.05 | crystal violet absorbance at 570 nm, biofilm formation, Mean±SD ([5]; ATCC25923, 1/8MIC, control 2.302±0.006): 0.678±0.01 | crystal violet absorbance at 570 nm, biofilm formation, Mean±SD ([5]; MRSA-1, 1/2MIC, control 2.115±0.01): 0.489±0.007 | crystal violet absorbance at 570 nm, biofilm formation, Mean±SD ([5]; MRSA-1, 1/4MIC, control 2.115±0.01): 0.572±0.01 | crystal violet absorbance at 570 nm, biofilm formation, Mean±SD ([5]; MRSA-1, 1/8MIC, control 2.115±0.01): 0.936±0.07 | crystal violet absorbance at 570 nm, biofilm formation, Mean±SD ([5]; MRSA-2, 1/2MIC, control 2.354±0.04): 0.444±0.008 | crystal violet absorbance at 570 nm, biofilm formation, Mean±SD ([5]; MRSA-2, 1/4MIC, control 2.354±0.04): 0.624±0.03 | crystal violet absorbance at 570 nm, biofilm formation, Mean±SD ([5]; MRSA-2, 1/8MIC, control 2.354±0.04): 0.923±0.07 | crystal violet absorbance at 570 nm, biofilm formation, Mean±SD ([5]; MRSA-3, 1/2MIC, control 1.541±0.02): 1.405±0.01 | crystal violet absorbance at 570 nm, biofilm formation, Mean±SD ([5]; MRSA-3, 1/4MIC, control 1.541±0.02): 0.322±0.02 | crystal violet absorbance at 570 nm, biofilm formation, Mean±SD ([5]; MRSA-3, 1/8MIC, control 1.541±0.02): 0.519±0.006 | crystal violet absorbance at 570 nm, biofilm formation, Mean±SD ([5]; MSSA-1, 1/2MIC, control 2.190±0.01): 0.236±0.03 | crystal violet absorbance at 570 nm, biofilm formation, Mean±SD ([5]; MSSA-1, 1/4MIC, control 2.190±0.01): 0.407±0.007 | crystal violet absorbance at 570 nm, biofilm formation, Mean±SD ([5]; MSSA-1, 1/8MIC, control 2.190±0.01): 0.622±0.02 | crystal violet absorbance at 570 nm, biofilm formation, Mean±SD ([5]; MSSA-2, 1/2MIC, control 1.802±0.02): 0.183±0.01 | crystal violet absorbance at 570 nm, biofilm formation, Mean±SD ([5]; MSSA-2, 1/4MIC, control 1.802±0.02): 0.225±0.01 | crystal violet absorbance at 570 nm, biofilm formation, Mean±SD ([5]; MSSA-2, 1/8MIC, control 1.802±0.02): 0.558±0.05 | inhibition of biofilm formation [5]; 2: 80-91% | inhibition of biofilm formation [5]; 4: 76-89% | inhibition of biofilm formation [5]; 8: 63-73% | crystal violet absorbance at 570 nm, dispersal activity, Mean±SD ([6]; ATCC25923, 1MIC, control 2.79±0.03): 1.277±0.01 | crystal violet absorbance at 570 nm, dispersal activity, Mean±SD ([6]; ATCC25923, 2MIC, control 2.79±0.03): 0.790±0.15 | crystal violet absorbance at 570 nm, dispersal activity, Mean±SD ([6]; ATCC25923, 4MIC, control 2.79±0.03): 0.35±0.01 | crystal violet absorbance at 570 nm, dispersal activity, Mean±SD ([6]; MRSA-1, 1MIC, control 1.903±0.003): 1.271±0.02 | crystal violet absorbance at 570 nm, dispersal activity, Mean±SD ([6]; MRSA-1, 2MIC, control 1.903±0.003): 0.926±0.07 | crystal violet absorbance at 570 nm, dispersal activity, Mean±SD ([6]; MRSA-1, 4MIC, control 1.903±0.003): 0.587±0.28 | crystal violet absorbance at 570 nm, dispersal activity, Mean±SD ([6]; MRSA-2, 1MIC, control 2.014±0.01): 1.349±0.04 | crystal violet absorbance at 570 nm, dispersal activity, Mean±SD ([6]; MRSA-2, 2MIC, control 2.014±0.01): 0.929±0.09 | crystal violet absorbance at 570 nm, dispersal activity, Mean±SD ([6]; MRSA-2, 4MIC, control 2.014±0.01): 0.579±0.08 | crystal violet absorbance at 570 nm, dispersal activity, Mean±SD ([6]; MRSA-3, 1MIC, control 1.255±0.29): 0.637±0.16 | crystal violet absorbance at 570 nm, dispersal activity, Mean±SD ([6]; MRSA-3, 2MIC, control 1.255±0.29): 0.5±0.11 | crystal violet absorbance at 570 nm, dispersal activity, Mean±SD ([6]; MRSA-3, 4MIC, control 1.255±0.29): 0.296±0.009 | crystal violet absorbance at 570 nm, dispersal activity, Mean±SD ([6]; MSSA-1, 1MIC, control 1.787±0.1): 1.063±0.09 | crystal violet absorbance at 570 nm, dispersal activity, Mean±SD ([6]; MSSA-1, 2MIC, control 1.787±0.1): 0.675±0.02 | crystal violet absorbance at 570 nm, dispersal activity, Mean±SD ([6]; MSSA-1, 4MIC, control 1.787±0.1): 0.378±0.02 | crystal violet absorbance at 570 nm, dispersal activity, Mean±SD ([6]; MSSA-2, 1MIC, control 2.116±0.006): 0.992±0.01 | crystal violet absorbance at 570 nm, dispersal activity, Mean±SD ([6]; MSSA-2, 2MIC, control 2.116±0.006): 0.637±0.20 | crystal violet absorbance at 570 nm, dispersal activity, Mean±SD ([6]; MSSA-2, 4MIC, control 2.116±0.006): 0.207±0.01
